Where two headings read alike, the source gives them in different places.
Assays:
[1] = biological target: T1, WT c-Src (Gallus gallus (Chicken), UniProt P00523); test: In vitro kinase assay, WT c-Src; assay type: biochemical; conditions: inhibitor preincubated with Src ten minutes prior to addition of ATP; read-out: WT c-Src IC50
Procedure: (§1) In vitro kinase assays for c-Src variants were performed in 50 mM Tris (pH 8.0), 10 mM MgCl2 and 1 mg/mL BSA. When obtaining kinetic parameters (kcat, Km) kinase and peptide substrate (IYGEFKKK) (SEQ ID NO:51) concentrations were 2 nM and 500 μM, respectively, while ATP concentrations ranged from 2000-0.655 μM. Addition of nonradioactive ATP supplemented with ^32P ATP (3,000 Ci/mmol, NEN) was used to initiate kinase reactions. Time points were selected such that product formation never exceeded 10%. Reactions were quenched by spotting 3 μL quantities onto phosphocellulose sheets (P81, Whatman). Afterwards, the sheets were washed 3×5 minutes in 0.5% phosphoric acid and dried. Radioactivity was measured by phosphorimaging and recorded on a Typhoon fluorescence imager (Molecular Dynamics). Data were plotted as rate (min^−1) versus ATP concentration and fitted to the Michaelis-Menten equation, v=[(kcat)[S]]/(Km+[S]), using Kaleidagraph software (Synergy) to extract kinetic parameters. When obtaining IC50 values for the inhibitors, 2% (v/v) DMSO was included in kinase reactions. In these cases ATP, peptide, and enzyme concentrations were 15 nM, 100 μM and 5 nM, respectively, while inhibitor concentrations ranged from 10,000-0.610 nM. In all cases, a ten-minute preincubation step between the kinase and the inhibitor preceded addition of ATP and a fifteen-minute reaction. The data was fitted to a sigmoidal dose-response curve using Prism 4.0c (GraphPad Software) to obtain IC50 values.

[2] = biological target: T2, T338C c-Src (Gallus gallus (Chicken), UniProt P00523, T338C); test: In vitro kinase assay, T338C c-Src (c-Src-ES1); assay type: biochemical
Procedure: as §1, with “In all cases, a ten-minute preincubation step between the kinase and the inhibitor preceded addition of ATP and a fifteen-minute reaction.” left out

[3] = Toxicity profiles (LD50); conditions: FIG. 17-19
[4] = biological target: c-Src-ES2 (T338C/V323A) (Gallus gallus (Chicken), UniProt P00523, T338C/V323A); test: In vitro kinase assay, c-Src-ES2; assay type: biochemical
Procedure: as §1

[5] = biological target: c-Src-ES3 (T338C/V323S) (Gallus gallus (Chicken), UniProt P00523, T338C/V323S); test: In vitro kinase assay, c-Src-ES3; assay type: biochemical; conditions: ES3 = T338C/V323S; read-out: c-Src variant IC50 (nM) ES3
Procedure: as §1

[6] = biological target: v-Src-ES1 (I338C) (Rous sarcoma virus (strain H-19), UniProt P25020, I338C); test: Inhibition assay with v-Src-ES1 transformed NIH-3T3 cells; assay type: cell-based
Procedure: (§2) Curr Biol 8(5):257-266. Cells were grown to 60-90% confluence in DMEM supplemented with fetal bovine serum (10%), penicillin ‘G’ (100 units/ml) and streptomycin sulfate (100 μg/ml) (PenStrep, UCSF Cell Culture Facility) prior to treatment with kinase inhibitors dissolved in DMSO (final DMSO concentration, 0.5%). Following 1 hour of incubation with inhibitors at 37° C., cells were harvested in lysis buffer (50 mM Tris (pH 7.4), 300 mM NaCl, 5 mM EDTA, 1% triton, 0.02% NaN3, 1× complete mini protease inhibitor (Roche), 1 mM PMSF, 1×PHOS-stop (Roche), 0.02 μM microcystin, 2 mM sodium orthovanadate), normalized for concentration and analyzed by Western blot for global phosphotyrosine levels (4G10, Millipore, 1:1000). Levels of β-actin (β-actin Antibody, Cell Signaling, 1:1000) and v-Src (Src 32G6 rabbit mAb, Cell Signaling, 1:1000) were ascertained by Western blot.
(§3) I338C (v-Src-ES1, SEQ ID NO:48), I338T (SEQ ID NO:49), I338G (v-Src-AS1, SEQ ID NO:50) and WT v-Src-transformed NIH-3T3 cell lines were generated. Unlike c-Src, v-Src is constitutively active and harbors an isoleucine gatekeeper. The I338T v-Src variant was generated for consistency with the in vitro c-Src studies. For each cell line, global levels of phosphotyrosine were analyzed (FIG. 7). […]

[7] = biological target: I338T v-Src (Rous sarcoma virus (strain H-19), UniProt P25020, I338T); assay type: cell-based
Procedure: as §2, §3

[8] = biological target: T2, T338C c-Src; test: Gel filtration and kinetic assay, T338C c-Src; assay type: biochemical; conditions: 23 μM inhibitor, 25 minutes, then PD10 desalting
Procedure: (§4) Inhibitors (final concentration 23 μM) were incubated with c-Src variants (final concentration 11.5 μM) in kinase reaction buffer (50 mM Tris pH 8, 100 mM NaCl, 1 mM DTT, 5% glycerol, 5% DMSO) for 25 minutes at room temperature. The solutions (2.6 mL total) were then passed over PD10 desalting columns (GE Healthcare) using the kinase reaction buffer for elution. Src concentrations were calculated using the extinction coefficient for c-Src (51.140 mM^−1cm^−1) {Seeliger, 2005 #100}. Kinase assays were performed as described in the experimental section at a final enzyme concentration of 10 nM.

[9] = biological target: T1, WT c-Src; test: Gel filtration and kinetic assay, WT c-Src; assay type: biochemical; conditions: 23 μM inhibitor, 25 minutes, then PD10 desalting
Procedure: as §4

[10] = biological target: T2, T338C c-Src; test: Full protein mass spectrometry of covalent labeling; assay type: binding; conditions: two equivalents of inhibitor
Procedure: Protein labeling conditions: Kinase labeling reactions were performed by incubating 30 μL quantities of c-Src variants (in 50 mM Tris pH 8, 100 mM NaCl, 1 mM DTT, 5% glycerol) with two equivalents of inhibitor in DMSO (final DMSO concentration=2.4%). The covalent labeling reaction was quenched by removing 4 μL and adding it to 31 μL of 0.1% formic acid. The sample was then analyzed by ES1-oa-TOF mass spectrometry.

[11] = system: 307 kinases; test: Kinome-wide profiling (SelectScreen Kinase Profiling Service); assay type: biochemical; conditions: compounds at 1 μM, ATP at Km,app
Procedure: The percent inhibition results in FIG. were generated with biochemical enzymatic kinase assays using the SelectScreen® Kinase Profiling Service (Life Technologies Corporation, Madison, Wis.). Compounds were assayed at 1 μM at an ATP concentration equal to the ATP Km,app for the assay following the detailed procedures described in the SelectScreen® Customer Protocol and Assay Conditions documents located at www.invitrogen.com/kinaseprofiling.
Compounds that were profiled include, but are not limited to, 3, 4, 9, 13, and 20. […] The exocyclic amine mimics N6 of ATP and plays an important role in a hydrogen bonding interaction with the hinge region of kinases.

[12] = inhibitor preincubated with Src ten minutes prior to addition of ATP, read-out: T338C c-Src IC50

Structure (SMILES) | IC50 [1] [nM] | IC50 [2, 12] [nM] | LD50 [3] [µM] | time dependence of inhibition of T338C c-Src [2] | IC50 ([2]; ES1 = T338C, read-out: c-Src variant IC50 (nM) ES1) [nM] | IC50 ([2]; T338C c-Src IC50 (nM), preincubation time 2 min) [nM] | IC50 ([2]; T338C c-Src IC50 (nM), preincubation time 20 min) [nM] | IC50 ([2]; T338C c-Src IC50 (nM), preincubation time 40 min) [nM] | IC50 ([4]; ES2 = T338C/V323A, read-out: c-Src variant IC50 (nM) ES2) [nM] | change of inhibitor potency upon second-site Val323 mutations ([4]; c-Src-ES2 and c-Src-ES3 relative to c-Src-ES1) | IC50 [5] [nM] | inhibition of v-Src-ES1 in cells (global phosphotyrosine levels) [6] | inhibition of I338T v-Src in cells (global phosphotyrosine levels) [7] | inhibitory activity after gel filtration, T338C c-Src [8] | inhibitory activity after gel filtration, WT c-Src [9] | covalent labeling / adduct formation by full protein mass spectrometry [10] | off-target profile in kinome-wide screen [11]
C=CS(=O)(=O)Nc1cccc(Nc2ncnc3cc(OC)c(OC)cc23)c1 [Compound 19, N-(3-(6,7-dimethoxyquinazolin-4-ylamino)phenyl)ethenesulfonamide] | > 5000 | 1000 | 3.92 | – | – | – | – | – | – | – | – | – | – | – | – | – | –
C=CS(=O)(=O)Nc1cccc(Cc2nn(C(C)C)c3ncnc(N)c23)c1 [Compound 9, N-(3-((4-amino-1-isopropyl-1H-pyrazolo[3,4-d]pyrimidin-3-yl)methyl)phenyl)ethenesulfonamide] | > 5000 | 150 | – | time-dependent manner | 150 | 981 | 309 | 138 | 207 | not modulated appreciably | 424 | inhibited v-Src-ES1 in a dose-dependent manner | neither 9 nor 13 inhibited I338T v-Src | retained | lost | specific labeling of T338C relative to WT c-Src | relatively few off-target effects

Reference: patent US9353116B2, “Methods and compositions for kinase inhibition” (THE REGENTS OF THE UNIVERSITY OF CALIFORNIA, priority 2010, dated 2016)
